The values that follow come from PMC9645260, “Small-molecule inhibitors of P-Rex guanine-nucleotide exchange factors” (Small GTPases, 2022).

Assay type in all cases: biochemical
For assay [1], the target named is T1, ITSN1 (DHPH) (Homo sapiens, UniProt Q15811).
T1 construct: The ITSN1 DHPH domains and Ect2 DHPH domains, produced in and purified from bacteria; host or cells: bacteria
T1 sequence (Q15811 1229-1580 limits assumed): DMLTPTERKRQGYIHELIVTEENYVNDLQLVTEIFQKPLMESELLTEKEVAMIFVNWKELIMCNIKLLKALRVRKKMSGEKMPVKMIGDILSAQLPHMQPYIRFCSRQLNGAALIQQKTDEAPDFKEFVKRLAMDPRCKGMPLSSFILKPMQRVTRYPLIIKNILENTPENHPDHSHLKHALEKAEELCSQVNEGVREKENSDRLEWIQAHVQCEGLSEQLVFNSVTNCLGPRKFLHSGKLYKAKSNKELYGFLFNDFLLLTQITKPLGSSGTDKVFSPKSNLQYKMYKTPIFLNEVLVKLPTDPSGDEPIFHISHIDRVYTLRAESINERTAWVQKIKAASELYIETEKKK
Put plainly: Liposome-based GEF activity assay, ITSN1. The settings on record: 10 µM, 100 nM ITSN1 DHPH. The procedure: (§1) Full-length N-terminally EE-tagged P-Rex1, P-Rex2, the P-Rex1 DH and DHPH domains and the P-Rex2 DH domain were produced in Sf9 cells using baculoviral transduction and were purified using anti-EE beads, as previously described. Briefly, frozen pellets from 500 ml of Sf9 culture infected with P-Rex expressing high-titre baculovirus were resuspended in ice-cold lysis Sf9-cell lysis buffer 2 (1x PBS, 1% Triton X-100, 5 mM EGTA, 1 mM EDTA, 25 mM NaF, 20 mM β-glycerophosphate, 1 mM DTT, 100 µM PMSF, 10 μg/ml each of leupeptin, pepstatin A, aprotinin and antipain) for 5 min and then ultracentrifuged at 118,000 × g for 1 h at 4°C. Supernatants were incubated with pre-washed anti-EE beads for 90 min on ice with end-over-end rotation. […] Protein concentration and purity were determined by coomassie staining of SDS-PAGE gels. […]
(§2) Liposome-based GEF activity assays were carried out essentially as described, except that GEFs were incubated with inhibitor compounds prior to the assay. […] Small GTPases were isolated using anti-EE antibody-coupled Sepharose beads or glutathione Sepharose beads, as appropriate, by incubation on ice for 90 min with end-over-end rotation, four washes in ice-cold wash buffer and resuspension of beads in Ultima Gold scintillation fluid (Perkin Elmer). ^35S-GTPγS incorporation was assessed by scintillation counting (Packard 1600TR, Liquid Scintillation Analyser).

In assay [2] the target is T2, Ect2 (DHPH) (Homo sapiens, UniProt Q9H8V3).
T2 construct: The ITSN1 DHPH domains and Ect2 DHPH domains, produced in and purified from bacteria; host or cells: bacteria
T2 sequence (Q9H8V3 452-794 limits assumed): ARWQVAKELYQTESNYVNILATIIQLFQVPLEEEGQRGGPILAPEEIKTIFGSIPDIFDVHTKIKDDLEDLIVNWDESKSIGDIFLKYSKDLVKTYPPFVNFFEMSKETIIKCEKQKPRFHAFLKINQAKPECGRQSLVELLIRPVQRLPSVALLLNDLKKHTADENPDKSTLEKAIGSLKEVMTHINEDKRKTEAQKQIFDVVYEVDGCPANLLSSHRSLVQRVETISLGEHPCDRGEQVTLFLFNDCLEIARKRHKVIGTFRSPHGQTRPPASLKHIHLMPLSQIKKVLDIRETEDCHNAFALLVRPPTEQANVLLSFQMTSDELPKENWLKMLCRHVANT
In words: Liposome-based GEF activity assay, Ect2. The conditions noted are these: 10 µM, 500 nM ECT2 DHPH. The procedure: as §1, §2

Assay [3] has as its target T3, full-length P-Rex2 (Homo sapiens, UniProt Q70Z35).
T3 construct: Full-length N-terminally EE-tagged P-Rex1, P-Rex2; made in house; host or cells: Sf9 cells (baculovirus)
Put plainly: Liposome-based GEF activity assay, PIP3-stimulated full-length P-Rex2. The conditions noted are these: 40 nM P-Rex2, read-out: inhibition of PIP3-stimulated Rac-GEF activity of full-length P-Rex2. The procedure:
as §1, §2

T3 sequence (Q70Z35 whole entry): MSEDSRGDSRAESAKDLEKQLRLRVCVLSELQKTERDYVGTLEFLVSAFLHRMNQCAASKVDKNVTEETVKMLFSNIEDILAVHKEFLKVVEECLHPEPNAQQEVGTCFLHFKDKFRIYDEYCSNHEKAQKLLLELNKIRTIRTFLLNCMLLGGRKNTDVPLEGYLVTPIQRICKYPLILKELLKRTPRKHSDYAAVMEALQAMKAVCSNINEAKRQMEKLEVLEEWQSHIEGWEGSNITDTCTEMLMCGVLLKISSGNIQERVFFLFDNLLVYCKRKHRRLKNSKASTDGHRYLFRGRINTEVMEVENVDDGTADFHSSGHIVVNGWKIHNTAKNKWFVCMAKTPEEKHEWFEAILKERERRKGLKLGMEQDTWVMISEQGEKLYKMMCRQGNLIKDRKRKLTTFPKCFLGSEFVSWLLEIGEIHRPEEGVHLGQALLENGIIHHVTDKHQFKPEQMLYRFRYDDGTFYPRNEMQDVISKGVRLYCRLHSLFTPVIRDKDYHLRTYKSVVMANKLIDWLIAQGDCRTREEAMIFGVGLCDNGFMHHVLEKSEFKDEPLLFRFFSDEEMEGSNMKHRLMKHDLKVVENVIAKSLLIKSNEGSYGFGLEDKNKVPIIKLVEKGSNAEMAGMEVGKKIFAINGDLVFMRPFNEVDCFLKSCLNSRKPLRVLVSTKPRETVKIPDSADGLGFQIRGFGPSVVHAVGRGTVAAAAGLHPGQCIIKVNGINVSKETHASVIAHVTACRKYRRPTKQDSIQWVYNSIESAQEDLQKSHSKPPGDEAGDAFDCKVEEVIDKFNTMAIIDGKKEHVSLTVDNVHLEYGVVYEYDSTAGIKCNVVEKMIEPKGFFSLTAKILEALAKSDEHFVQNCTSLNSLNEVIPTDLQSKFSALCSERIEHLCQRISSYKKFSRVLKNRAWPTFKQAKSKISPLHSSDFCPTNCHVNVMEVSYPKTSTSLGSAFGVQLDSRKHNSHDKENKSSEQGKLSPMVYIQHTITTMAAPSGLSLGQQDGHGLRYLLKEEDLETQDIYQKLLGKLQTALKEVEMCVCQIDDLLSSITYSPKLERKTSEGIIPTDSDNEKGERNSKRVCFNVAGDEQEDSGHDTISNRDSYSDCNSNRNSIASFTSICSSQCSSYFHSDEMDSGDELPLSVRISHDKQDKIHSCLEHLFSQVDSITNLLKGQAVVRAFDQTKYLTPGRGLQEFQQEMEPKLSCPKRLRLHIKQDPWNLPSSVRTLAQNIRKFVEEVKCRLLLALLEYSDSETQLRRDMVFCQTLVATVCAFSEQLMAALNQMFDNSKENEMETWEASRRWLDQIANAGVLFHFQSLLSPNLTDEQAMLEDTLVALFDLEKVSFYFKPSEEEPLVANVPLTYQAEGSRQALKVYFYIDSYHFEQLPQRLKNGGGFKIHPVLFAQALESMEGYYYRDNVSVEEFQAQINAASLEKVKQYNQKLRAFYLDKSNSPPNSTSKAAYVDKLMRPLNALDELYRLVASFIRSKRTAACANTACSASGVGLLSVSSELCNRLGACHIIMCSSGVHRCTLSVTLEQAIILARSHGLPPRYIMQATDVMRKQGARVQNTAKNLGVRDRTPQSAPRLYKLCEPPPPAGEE

In the case of `COc1ccc(-c2[nH]nc3c2C(c2ccc(-c4ccc(Cl)cc4)o2)C(C#N)=C(N)O3)cc1` (stereo not drawn) [PREX-in1, 6-amino-4-[5-(4-chlorophenyl)-2-furyl]-3-(4-methoxyphenyl)-2,4-dihydropyrano[2,3-c]pyrazole-5-carbonitrile], the “effect on GEF activity of ITSN1” value in assay [1] was “none of the other GEFs were affected”. Further, in assay [2], the “effect on GEF activity of Ect2” value was “none of the other GEFs were affected”. In addition, the inhibition (commonly the relative decrease from the control value, in per cent) at 10 µM in assay [3] amounted to 82%.
